The nature of one data set: physchem. Type of data set: physicochemical. The conditions noted are these: 24 °C; water at 24±3° C. An excerpt: (§1) Acid addition salts of the first aspect are well-suited to pharmaceutical formulation as either solution or solid dosage forms. […] It has been shown that these particular salts are also non-hygroscopic and this remains unchanged when stored in a humid environment. The lower hygroscopicity is a further advantage for processing and storing such acid addition salts.

Data set [1] in a line: hygroscopicity of the salts. Particulars: crystal form / solid salt. Type of data set: physicochemical.
From the text: as §1

The test system of another data set is tubulin. The data set can be described thus: inhibition of tubulin polymerisation. Type of data set: biochemical. Particulars: read-out: inhibits tubulin polymerisation, IC50. From the text:
One pharmacologically important mechanism of inhibiting cellular proliferation is by means of binding tubulin. Tubulin is an asymmetric dimer composed of alpha and beta subunits, that polymerizes to form structural components of the cytoskeleton called microtubules. Microtubules must be highly dynamic in order to carry out many of their functions. At certain stages of the cell cycle, or in particular cell types or organelles, stable microtubules are required, such as for transport within axons or for ciliary and flagellar movement. Micro-tubules assemble during the G2 phase of the cell cycle, and participate in the formation of the mitotic spindle which facilitates the segregation of sister chromatids during the process of cell division. The essential role of microtubules in cell division and the ability of drugs that interact with tubulin to interfere with the cell cycle have made tubulin a successful target for applications that include anti-cancer drugs, fungicides, and herbicides.
The compound of formula I, and by analogy its acid addition salts, inhibits tubulin polymerisation with an IC50 of 3 μM. […] The inhibition of tubulin polymerisation makes a compound of formula I suitable for the treatment of cancer, viral and bacterial infections, vascular restenosis, inflammatory diseases, autoimmune diseases, and psoriasis.

Another data set has as its system in vivo tumour models. The data set can be described thus: vascular targeting activity in in vivo tumour models.

Some results are limits rather than exact numbers.

Usually solubility stands for the dissolved amount per volume that the medium holds. A higher solubility goes with much dissolved substance. In turn, `CCC[C@H](Nc1nc(-c2ccc(NC(=O)NCC)c(OC)c2)ncc1C)c1cccnc1.O=C(O)CC(O)(CC(=O)O)C(=O)O` [citrate salt, N-ethyl-N′-[2-methoxy-4-(5-methyl-4-{[(1S)-1-pyridin-3-ylbutyl]amino}pyrimidin-2-yl)phenyl]urea citrate salt] registered a solubility in the data set “physchem” greater than 2.1 mg/mL. For the same compound, the hygroscopicity result in data set [1] was “not hygroscopic”.

What is called IC50 is the concentration needed to halve the response being measured. On to `CCC[C@H](Nc1nc(-c2ccc(NC(=O)NCC)c(OC)c2)ncc1C)c1cccnc1` [compound of formula I, N-ethyl-N′-[2-methoxy-4-(5-methyl-4-{[(1S)-1-pyridin-3-ylbutyl]amino}pyrimidin-2-yl)phenyl]urea], for which the IC50 with tubulin turned out to be 3 µM. Also, in the data set with in vivo tumour models, the vascular targeting activity result was “displays vascular targeting activity”.

Compound `CCC[C@H](Nc1nc(-c2ccc(NC(=O)NCC)c(OC)c2)ncc1C)c1cccnc1.CS(=O)(=O)O.CS(=O)(=O)O` [di-methanesulfonate salt, N-ethyl-N′-[2-methoxy-4-(5-methyl-4-{[(1S)-1-pyridin-3-ylbutyl]amino}pyrimidin-2-yl)phenyl]urea di-methanesulfonate salt] displayed a solubility in “physchem” greater than 2.1 mg/mL. In data set [1], the hygroscopicity result is “not hygroscopic”.

In turn, `CCC[C@H](Nc1nc(-c2ccc(NC(=O)NCC)c(OC)c2)ncc1C)c1cccnc1.Cl.Cl` [dihydrochloride salt, N-ethyl-N′-[2-methoxy-4-(5-methyl-4-{[(1S)-1-pyridin-3-ylbutyl]amino}pyrimidin-2-yl)phenyl]urea dihydrochloride salt] gave a solubility in the data set “physchem” greater than 2.1 mg/mL. In addition, the hygroscopicity entry in data set [1] was “not hygroscopic”.

With `CCC[C@H](Nc1nc(-c2ccc(NC(=O)NCC)c(OC)c2)ncc1C)c1cccnc1.O=C(O)C(=O)O` [mono-oxalate salt, N-ethyl-N′-[2-methoxy-4-(5-methyl-4-{[(1S)-1-pyridin-3-ylbutyl]amino}pyrimidin-2-yl)phenyl]urea mono-oxalate salt], in the data set “physchem”, the solubility was greater than 2.1 mg/mL. Besides, the hygroscopicity entry in data set [1] is listed as “not hygroscopic”.

In the data set “physchem”, `CCC[C@H](Nc1nc(-c2ccc(NC(=O)NCC)c(OC)c2)ncc1C)c1cccnc1.O=C(O)C(O)C(O)C(=O)O` [tartrate salt, N-ethyl-N′-[2-methoxy-4-(5-methyl-4-{[(1S)-1-pyridin-3-ylbutyl]amino}pyrimidin-2-yl)phenyl]urea tartrate salt] came in with a solubility greater than 2.1 mg/mL. Further, the hygroscopicity result in data set [1] was “not hygroscopic”.
